In patent US4064254A, “Substituted piperidines therapeutic process and compositions” (Mead Johnson & Company, priority 1976, dated 1977):
Converted amounts (≈) assume the structure as drawn.

Assays:
serotonin (rat uterus) = test: antiserotonin activity in the rat uterus (spasmogenic effect of serotonin); type: cell-based; settings: rat uterine horn, 30° C., 0.4 microgram per milliliter of serotonin; read-out: IC50 (decrease of spasmogenic effect of serotonin by 50%)
Experimental: According to this test one of the uterine horns of a rat uterus is suspended in oxygenated salt solution at 30° C. The contractions of this tissue are then recorded and varying concentrations of the test compound introduced into the bath in order to determine the concentration that would decrease the spasmogenic effect of 0.4 microgram per milliliter of serotonin by 50%. This value is designated the IC50.

[1] = tested on: serotonin in the brain in mice; test: antiserotonin activity in mice, 5-hydroxytryptophan / monoamine oxidase inhibitor (Corne); type: in vivo; settings: Mus musculus
Description: This test is dependent on the metabolism of 5-hydroxytryptophan to serotonin in the brain in mice which are pretreated with a monamine oxidase inhibitor.

rabbit atrium = test: in vitro rabbit atrium test (refractory period); type: cell-based; settings: Oryctolagus cuniculus; rabbit left atrium, 30° C., stimulated at 30 per minute; read-out: EC50 (50% of maximal increase in refractory period)
Experimental: In this test, the left atrium is placed in Chenoweth's solution warmed to 30° C. and irrigated with 95% oxygen: 5% carbon dioxide. The lower end of the atrium is attached to a small hook fixed in the bath and the upper end is connected to a transducer to record contractile activity. […] A test compound is introduced into the bath and the test repeated after a 5 minute interval. A dose-response relationship is obtained by additional doses of the test compound. […] This value is designated the EC50.

[2] = tested on: electrically induced arrhythmia in the dog; test: electrically induced arrhythmia in the dog; type: in vivo; settings: Canis lupus familiaris, iv
[3] = tested on: aconitine induced arrhythmia in the dog; test: prevention of aconitine induced arrhythmia in the dog, intraduodenal administration; type: in vivo; settings: Canis lupus familiaris, read-out: effective dose in the prevention of aconitine induced arrhythmia
Description: (§1) The chest of an anesthetized dog is opened in the midline and the right and left atrial appendages exposed through small slits in the pericardium. Bypolar recording electrodes are affixed to the atrial surfaces and a 4 × 4 mm. piece of clean cloth is fixed to the surface of the right auricular appendage. Control recordings are made of various heart functions including femoral arterial blood pressure and right and left atrial electrograms. Atrial arrhythmia is then induced by placing 3-5 drops of a solution of aconitine on the cloth which is fixed to the right atrium. […] Throughout the experiment, fresh aconitine is (2-3 drops) placed on the cloth at 10 minute intervals.

[4] = tested on: chloroform induced arrhythmia in the mouse; test: inhibition of chloroform induced arrhythmia in the mouse (Lawson); type: in vivo; settings: ip, intraperitoneal, read-out: ED50, prevention of chloroform induced arrhythmia
Description: Another in vivo test involves the inhibition of chloroform induced arrhythmia in the mouse according to the method of J. W. Lawson, J. Pharmacol. Exp. Therap., 160, 22 (1968).

[5] = tested on: aconitine induced arrhythmia in the dog; test: aconitine induced atrial arrhythmia in the anesthetized dog, intravenous; type: in vivo; settings: Canis lupus familiaris, read-out: effective dose restoring normal cardiac rhythm, aconitine induced arrhythmia
Description: as §1

Row | SMILES | IC50 (serotonin (rat uterus)) | ED50 ([1]; ip, 1 h, intraperitoneal, 60 minute pretreatment) | ED50 ([1]; sc, 0.5 h, subcutaneous, 30 minute pretreatment) | ED50 ([1]; sc, 1 h, subcutaneous, 60 minute pretreatment) | EC50 (rabbit atrium) | minimal effective dose [2] | minimal effective dose [3] | ED50 [4] | minimal effective dose [5]
1 | CN1CCCCC1CCc1ccccc1NC(=O)C=Cc1ccccc1 (centres unmarked) [2'-[2-(1-Methyl-2-piperidyl)ethyl]-cinnamanilide] | 0.00185 µg/mL (≈ 0.00531 µM) | 21 mg/kg | 4.3 mg/kg | 10 mg/kg |  |  |  |  | 
2 | CN1CCCCC1CCc1ccccc1N (centres unmarked) [2-(o-Aminophenethyl)-1-methylpiperidine, 2-(O-Aminophenethyl)-1-methylpiperidine] |  |  |  |  | 44 µg/mL (≈ 202 µM) |  |  |  | 
3 | COc1ccc(C(=O)Nc2ccccc2CCC2CCCCN2C)cc1 (centres unmarked) [4-methoxy-2'-[2-(1-methyl-2-piperidyl)ethyl]benzanilide] | 0.0046 µg/mL (≈ 0.0131 µM) |  |  |  | 2.4 µg/mL (≈ 6.81 µM) | 1.9 mg/kg | < 10 mg/kg | 7.1 mg/kg | 0.8 mg/kg
4 | CCN(CC)C(=O)[C@@H]1C=C2c3cccc4[nH]cc(c34)C[C@H]2N(C)C1 [lysergide, reference compound] | 0.012 µg/mL (≈ 0.0371 µM) |  |  |  |  |  |  |  | 
5 | C=C[C@H]1C[N@@]2CC[C@H]1C[C@@H]2[C@@H](O)c1ccnc2ccc(OC)cc12 [quinidine, reference compound] |  |  |  |  | 18 µg/mL (≈ 55.5 µM) | 14 mg/kg | > 14 mg/kg | 83 mg/kg | 6 mg/kg
